Key:
[1] = molecular target: T1, human recombinant 15-PGDH (Homo sapiens, UniProt P15428); experiment: Recombinant 15-PGDH enzymatic inhibition assay (PGDH-Lumi, NADH signal); type: biochemical; details: recombinant 15-PGDH; 15 min pre-incubation, 60 min reaction with PGE2 and NAD+, NADH signal
T1 sequence (P15428 1-266): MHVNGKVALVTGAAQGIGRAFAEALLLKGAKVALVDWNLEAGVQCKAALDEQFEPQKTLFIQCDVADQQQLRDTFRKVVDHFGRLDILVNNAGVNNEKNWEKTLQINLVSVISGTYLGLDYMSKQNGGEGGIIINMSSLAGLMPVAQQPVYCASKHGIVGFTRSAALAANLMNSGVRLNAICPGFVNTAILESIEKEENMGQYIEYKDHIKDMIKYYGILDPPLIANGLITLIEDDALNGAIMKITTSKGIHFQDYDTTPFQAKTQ
Procedure, shortened: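 Recombinant 15-PGDH pre-incubated 15 min at room temperature with compound (22 concentrations, 2-fold dilutions) in 50 mM Tris pH 7.5, 0.01% Tween-20, […].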

15-PGDH in A549 cells = molecular target: T2, 15-PGDH in A549 cells (Homo sapiens, UniProt P15428); experiment: A549 cellular 15-PGDH assay (PGE2 accumulation, HTRF); type: cell-based; details: interleukin-stimulated, inhibitor 24 hrs, PGE2 by competitive HTRF, read-out: A549 Cell Assay IC50
T2 construct: endogenous in cells; host or cells: A549
T2 sequence (P15428 1-266): T1 sequence (P15428 1-266)
Procedure, shortened: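 IL-13-stimulated A549 lung carcinoma cells released PGE2, which was measured in supernatants by competitive HTRF with a Eu-cryptate anti-PGE2 antibody and labelled PGE2. Signal falls as PGE2 rises. IC50 values were derived from the binding data.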

| IC50 [1] | IC50 (15-PGDH in A549 cells) | SMILES |
| --- | --- | --- |
| 1.18 nM | 0.997 nM | Cn1cc2cc(-c3ccc4cc([C@]5(O)C[C@@]6(CCO6)C5)sc4n3)cnc2n1 (single isomer, unassigned) [Compound C56T, trans-6-(6-(2-methyl-2H-pyrazolo[3,4-b]pyridin-5-yl)thieno[2,3-b]pyridin-2-yl)-1-oxaspiro[3.3]heptan-6-ol] |
| 0.889 nM | 0.519 nM | COC[C@H]1C[C@](O)(c2cc3ccc(-c4cnc5nn(C)cc5c4)nc3s2)C1 (single isomer, unassigned) [Compound C58C, cis-3-(methoxymethyl)-1-(6-(2-methyl-2H-pyrazolo[3,4-b]pyridin-5-yl)thieno[2,3-b]pyridin-2-yl)cyclobutanol] |
| 0.727 nM | 0.16 nM | CO[C@]1(C)C[C@](O)(c2cc3ccc(-c4cnc5nn(C)cc5c4)nc3s2)C1 (single isomer, unassigned) [Compound C59T, trans-3-methoxy-3-methyl-1-(6-(2-methyl-2H-pyrazolo[3,4-b]pyridin-5-yl)thieno[2,3-b]pyridin-2-yl)cyclobutanol] |
| 0.366 nM | 0.0321 nM | Cn1cc2cc(-c3ccc4cc([C@]5(O)C[C@@H](C6CC6)C5)sc4n3)cnc2n1 (single isomer, unassigned) [Compound C62C, cis-3-cyclopropyl-1-(6-(2-methyl-2H-pyrazolo[3,4-b]pyridin-5-yl)thieno[2,3-b]pyridin-2-yl)cyclobutanol] |
| 20.9 nM | 3.25 nM | C[C@H]1CC[C@]1(O)c1cc2ccc(-c3cnc4nn(C)cc4c3)nc2s1 (single isomer, unassigned) [Compound C64RS] |
| 32.6 nM | 3.45 nM | Cn1cc2cc(-c3ccc4cc([C@@]5(O)CCC5(C)C)sc4n3)cnc2n1 (single isomer, unassigned) [Compound C65R] |
| 0.852 nM | 0.206 nM | CO[C@]1(C(F)(F)F)C[C@@](O)(c2cc3ccc(-c4cnc5nn(C)cc5c4)nc3s2)C1 (single isomer, unassigned) [Compound C66C, cis-3-methoxy-1-(6-(2-methyl-2H-pyrazolo[3,4-b]pyridin-5-yl)thieno[2,3-b]pyridin-2-yl)-3-(trifluoromethyl)cyclobutanol] |
| 0.47 nM | 0.0223 nM | CO[C@]1(C(F)(F)F)C[C@](O)(c2cc3ccc(-c4cnc5nn(C)cc5c4)nc3s2)C1 (single isomer, unassigned) [Compound C66T, trans-3-methoxy-1-(6-(2-methyl-2H-pyrazolo[3,4-b]pyridin-5-yl)thieno[2,3-b]pyridin-2-yl)-3-(trifluoromethyl)cyclobutanol] |
| 403 nM | 117 nM | CO[C@@H]1CC[C@]1(O)c1cc2ccc(-c3cnc4nn(C)cc4c3)nc2s1 (single isomer, unassigned) [Compound C70RR] |
| 3860 nM | > 750 nM | CO[C@H]1CC[C@]1(O)c1cc2ccc(-c3cnc4nn(C)cc4c3)nc2s1 (single isomer, unassigned) [Compound C70RS] |
| 2260 nM | 172 nM | CO[C@@H]1CC[C@@]1(O)c1cc2ccc(-c3cnc4nn(C)cc4c3)nc2s1 (single isomer, unassigned) [Compound C70SR] |
| 2280 nM | 316 nM | CO[C@H]1CC[C@@]1(O)c1cc2ccc(-c3cnc4nn(C)cc4c3)nc2s1 (single isomer, unassigned) [Compound C70SS] |
| 0.503 nM | 0.455 nM | Cn1cc2cc(-c3ccc4cc([C@]5(O)C[C@]6(CC6(F)F)C5)sc4n3)cnc2n1 (single isomer, unassigned) [Compound C88C, cis-1,1-difluoro-5-(6-(2-methyl-2H-pyrazolo[3,4-b]pyridin-5-yl)thieno[2,3-b]pyridin-2-yl)spiro[2.3]hexan-5-ol] |
| 0.347 nM | 0.589 nM | Cn1cc2cc(-c3ccc4cc([C@]5(O)C[C@@]6(CC6(F)F)C5)sc4n3)cnc2n1 (single isomer, unassigned) [Compound C88T, trans-1,1-difluoro-5-(6-(2-methyl-2H-pyrazolo[3,4-b]pyridin-5-yl)thieno[2,3-b]pyridin-2-yl)spiro[2.3]hexan-5-ol] |
| 0.799 nM | 2.22 nM | Cn1cc2cc(-c3ccc4nc([C@]5(O)C[C@@](C)(C#N)C5)sc4n3)cnc2n1 (single isomer, unassigned) [Compound C91C, cis-3-hydroxy-1-methyl-3-(5-(2-methyl-2H-pyrazolo[3,4-b]pyridin-5-yl)[1,3]thiazolo[5,4-b]pyridin-2-yl)cyclobutanecarbonitrile] |
| 2.14 nM | 5.85 nM | Cn1cc2cc(-c3ccc4nc([C@]5(O)C[C@](C)(C#N)C5)sc4n3)cnc2n1 (single isomer, unassigned) [Compound C91T, trans-3-hydroxy-1-methyl-3-(5-(2-methyl-2H-pyrazolo[3,4-b]pyridin-5-yl)[1,3]thiazolo[5,4-b]pyridin-2-yl)cyclobutanecarbonitrile] |
| 0.755 nM | 2.33 nM | Cn1cc2cc(-c3ncc4cc([C@]5(O)C[C@@](C)(C#N)C5)sc4n3)cnc2n1 (single isomer, unassigned) [Compound C96C, cis-3-hydroxy-1-methyl-3-(2-(2-methyl-2H-pyrazolo[3,4-b]pyridin-5-yl)thieno[2,3-d]pyrimidin-6-yl)cyclobutanecarbonitrile] |
| 0.445 nM | 1.39 nM | Cn1cc2cc(-c3ncc4cc([C@]5(O)C[C@](C)(C#N)C5)sc4n3)cnc2n1 (single isomer, unassigned) [Compound C96T, trans-3-hydroxy-1-methyl-3-(2-(2-methyl-2H-pyrazolo[3,4-b]pyridin-5-yl)thieno[2,3-d]pyrimidin-6-yl)cyclobutanecarbonitrile] |
| 8.69 nM | 18.7 nM | Cn1nnc2cc(-c3ncc4cc([C@]5(O)C[C@@](C)(C#N)C5)sc4n3)cnc21 (single isomer, unassigned) [Compound C98C, cis-3-hydroxy-1-methyl-3-(2-(3-methyl-3H-[1,2,3]triazolo[4,5-b]pyridin-6-yl)thieno[2,3-d]pyrimidin-6-yl)cyclobutanecarbonitrile] |
| 1.73 nM | 2.66 nM | Cn1nnc2cc(-c3ncc4cc([C@]5(O)C[C@](C)(C#N)C5)sc4n3)cnc21 (single isomer, unassigned) [Compound C98T, trans-3-hydroxy-1-methyl-3-(2-(3-methyl-3H-[1,2,3]triazolo[4,5-b]pyridin-6-yl)thieno[2,3-d]pyrimidin-6-yl)cyclobutanecarbonitrile] |
| 0.971 nM | 2.53 nM | CO[C@]1(C)C[C@@](O)(c2cc3ccc(-c4cnc5c(c4)nnn5C)nc3s2)C1 (single isomer, unassigned) [Compound C102C, cis-3-methoxy-3-methyl-1-(6-(3-methyl-3H-[1,2,3]triazolo[4,5-b]pyridin-6-yl)thieno[2,3-b]pyridin-2-yl)cyclobutanol] |
| 1.65 nM | 5.77 nM | CO[C@]1(C)C[C@](O)(c2cc3ccc(-c4cnc5c(c4)nnn5C)nc3s2)C1 (single isomer, unassigned) [Compound C102T, trans-3-methoxy-3-methyl-1-(6-(3-methyl-3H-[1,2,3]triazolo[4,5-b]pyridin-6-yl)thieno[2,3-b]pyridin-2-yl)cyclobutanol] |
| 3.88 nM | 11.3 nM | Cn1nnc2cc(-c3ccc4cc([C@]5(O)C[C@@](C)(C#N)C5)sc4n3)cnc21 (single isomer, unassigned) [Compound C104C, cis-3-hydroxy-1-methyl-3-(6-(3-methyl-3H-[1,2,3]triazolo[4,5-b]pyridin-6-yl)thieno[2,3-b]pyridin-2-yl)cyclobutanecarbonitrile] |
| 0.515 nM | 1.44 nM | Cn1nnc2cc(-c3ccc4cc([C@]5(O)C[C@](C)(C#N)C5)sc4n3)cnc21 (single isomer, unassigned) [Compound C104T, trans-3-hydroxy-1-methyl-3-(6-(3-methyl-3H-[1,2,3]triazolo[4,5-b]pyridin-6-yl)thieno[2,3-b]pyridin-2-yl)cyclobutanecarbonitrile] |
| 16.7 nM | 29.4 nM | Cn1cc2cc(-c3ccc4sc([C@]5(O)C[C@@](C)(C#N)C5)cc4n3)cnc2n1 (single isomer, unassigned) [Compound C106C, cis-3-hydroxy-1-methyl-3-(5-(2-methyl-2H-pyrazolo[3,4-b]pyridin-5-yl)thieno[3,2-b]pyridin-2-yl)cyclobutanecarbonitrile] |
| 24.2 nM | 45.2 nM | Cn1cc2cc(-c3ccc4sc([C@]5(O)C[C@](C)(C#N)C5)cc4n3)cnc2n1 (single isomer, unassigned) [Compound C106T, trans-3-hydroxy-1-methyl-3-(5-(2-methyl-2H-pyrazolo[3,4-b]pyridin-5-yl)thieno[3,2-b]pyridin-2-yl)cyclobutanecarbonitrile] |
| 1.42 nM | 7.19 nM | CO[C@]1(C(F)(F)F)C[C@@](O)(c2cc3cnc(-c4cnc5nn(C)cc5c4)nc3s2)C1 (single isomer, unassigned) [Compound C113C, cis-3-methoxy-1-(2-(2-methyl-2H-pyrazolo[3,4-b]pyridin-5-yl)thieno[2,3-d]pyrimidin-6-yl)-3-(trifluoromethyl)cyclobutanol] |
